Measurements: patent publication US10077261B2, “Imidazolin-5-one derivative useful as FASN inhibitors for the treatment of cancer” (Janssen Pharmaceutica NV, priority 2012, dated 2018)

Experiments:
[1] = test system: LNCaP-Vancouver prostate cells; assay: In vitro LNCaP Vancouver prostate cell proliferation assay in lipid reduced medium; type: cell-based; conditions: read-out: pIC50 LNCaP_Vancouver prostate cell (converted)
A2780 ovarian cells [2] = assay: A2780 ovarian cell proliferation assay in lipid reduced medium, with palmitate (MTT); type: cell-based; conditions: Homo sapiens, A2780, 96 h; read-out: pIC50 A2780 Ovarian Cell, With Palmitate (converted)
In short: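 In this palmitate-supplemented format, compound dilutions (30 μM down to 0.01 μM) are added to cells in lipid-reduced serum with 25 μM palmitate, 0.2% fatty-acid-free BSA and 0.25% ethanol. After four days (96 h) MTT absorbance at 544 nm is recorded and fitted by minimum sum of squares.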

[3] = biological target: T1, hFASN enzyme (full length) (Homo sapiens, UniProt P49327); assay: Fatty Acid Synthase (FASN) inhibition scintillation proximity assay; type: biochemical; conditions: for inhibition at 10 µM: read-out: Human FASN % inhibition @ 10 μM, 10 μM test compound; for IC50: read-out: Human FASN pIC50 (converted)
T1 construct: 10 μL hFASN enzyme (full length, 300 ng, purified in house); made in house
T1 sequence (P49327 whole entry): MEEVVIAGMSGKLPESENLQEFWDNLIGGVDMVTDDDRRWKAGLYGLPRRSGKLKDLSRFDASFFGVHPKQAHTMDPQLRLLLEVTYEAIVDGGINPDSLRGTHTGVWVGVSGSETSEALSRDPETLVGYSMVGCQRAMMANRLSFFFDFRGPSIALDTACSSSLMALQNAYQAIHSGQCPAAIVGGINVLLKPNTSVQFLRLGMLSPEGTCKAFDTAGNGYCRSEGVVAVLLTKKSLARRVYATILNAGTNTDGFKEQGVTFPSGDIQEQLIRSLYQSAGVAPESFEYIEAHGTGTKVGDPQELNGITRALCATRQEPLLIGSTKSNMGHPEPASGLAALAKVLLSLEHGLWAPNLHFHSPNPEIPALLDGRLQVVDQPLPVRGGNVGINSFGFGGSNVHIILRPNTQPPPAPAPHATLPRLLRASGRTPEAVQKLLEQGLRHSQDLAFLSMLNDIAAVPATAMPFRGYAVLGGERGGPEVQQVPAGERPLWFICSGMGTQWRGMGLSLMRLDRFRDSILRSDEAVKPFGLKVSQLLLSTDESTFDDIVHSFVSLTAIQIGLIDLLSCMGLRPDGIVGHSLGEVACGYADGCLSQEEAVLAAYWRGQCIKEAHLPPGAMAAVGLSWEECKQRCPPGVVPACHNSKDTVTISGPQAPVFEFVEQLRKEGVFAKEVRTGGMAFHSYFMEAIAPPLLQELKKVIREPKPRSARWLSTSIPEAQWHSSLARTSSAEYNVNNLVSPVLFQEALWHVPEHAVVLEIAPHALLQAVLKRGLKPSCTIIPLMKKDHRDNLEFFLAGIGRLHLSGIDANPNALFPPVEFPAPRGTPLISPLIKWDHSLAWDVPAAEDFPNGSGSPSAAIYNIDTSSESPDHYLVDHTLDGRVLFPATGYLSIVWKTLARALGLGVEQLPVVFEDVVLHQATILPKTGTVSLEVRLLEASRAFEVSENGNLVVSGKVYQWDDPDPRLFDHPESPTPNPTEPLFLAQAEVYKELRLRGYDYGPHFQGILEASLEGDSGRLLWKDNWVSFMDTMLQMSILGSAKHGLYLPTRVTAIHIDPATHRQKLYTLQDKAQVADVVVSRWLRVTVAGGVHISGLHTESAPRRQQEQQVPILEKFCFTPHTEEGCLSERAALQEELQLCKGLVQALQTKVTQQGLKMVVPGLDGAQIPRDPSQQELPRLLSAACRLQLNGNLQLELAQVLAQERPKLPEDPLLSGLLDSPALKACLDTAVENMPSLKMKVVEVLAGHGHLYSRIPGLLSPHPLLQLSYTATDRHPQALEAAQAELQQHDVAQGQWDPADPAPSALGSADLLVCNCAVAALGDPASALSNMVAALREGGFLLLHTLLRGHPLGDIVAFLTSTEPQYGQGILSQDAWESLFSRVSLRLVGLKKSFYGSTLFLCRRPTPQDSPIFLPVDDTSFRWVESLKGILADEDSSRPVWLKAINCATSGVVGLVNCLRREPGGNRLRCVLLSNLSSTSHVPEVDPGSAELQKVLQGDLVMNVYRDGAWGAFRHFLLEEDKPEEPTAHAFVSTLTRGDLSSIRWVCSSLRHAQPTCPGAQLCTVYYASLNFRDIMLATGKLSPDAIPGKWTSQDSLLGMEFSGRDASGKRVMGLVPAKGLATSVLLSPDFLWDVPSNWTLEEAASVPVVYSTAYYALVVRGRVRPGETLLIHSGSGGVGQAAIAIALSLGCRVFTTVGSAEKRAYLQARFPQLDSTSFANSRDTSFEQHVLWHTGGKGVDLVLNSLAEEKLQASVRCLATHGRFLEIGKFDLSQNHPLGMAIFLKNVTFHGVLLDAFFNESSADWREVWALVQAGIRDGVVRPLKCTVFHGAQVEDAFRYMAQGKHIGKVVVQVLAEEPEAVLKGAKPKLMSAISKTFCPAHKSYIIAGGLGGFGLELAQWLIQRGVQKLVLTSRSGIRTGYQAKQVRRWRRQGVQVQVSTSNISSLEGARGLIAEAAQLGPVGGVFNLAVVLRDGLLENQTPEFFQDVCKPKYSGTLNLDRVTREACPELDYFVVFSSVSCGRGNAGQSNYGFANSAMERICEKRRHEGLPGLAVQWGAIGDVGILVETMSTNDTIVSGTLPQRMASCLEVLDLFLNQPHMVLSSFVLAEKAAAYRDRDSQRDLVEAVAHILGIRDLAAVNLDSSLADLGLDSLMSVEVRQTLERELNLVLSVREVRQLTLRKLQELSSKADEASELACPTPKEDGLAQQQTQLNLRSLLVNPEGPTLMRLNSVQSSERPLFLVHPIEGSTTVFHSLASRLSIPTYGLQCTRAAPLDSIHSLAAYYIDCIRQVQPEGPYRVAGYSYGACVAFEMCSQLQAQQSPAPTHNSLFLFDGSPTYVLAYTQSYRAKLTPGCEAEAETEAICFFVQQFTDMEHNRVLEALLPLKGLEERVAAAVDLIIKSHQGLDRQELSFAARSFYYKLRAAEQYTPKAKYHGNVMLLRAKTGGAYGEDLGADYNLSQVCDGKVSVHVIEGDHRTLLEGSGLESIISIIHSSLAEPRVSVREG
In short: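 Proximity read-out: hydrophobic ^3H-palmitate formed from ^3H-acetyl-CoA and malonyl-CoA binds streptavidin imaging beads, imaged at 610±20 nm at least 24 h after stopping. Enzyme was in-house purified full-length hFASN, 300 ng, in pH 7.5 phosphate/DTT buffer; compound series 30 μM down to 0.01 μM, normalized to controls, 4-parameter fit.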

A2780 ovarian cells [4] = assay: A2780 ovarian cell proliferation assay in lipid reduced medium, without palmitate (MTT); type: cell-based; conditions: Homo sapiens, A2780, 96 h; read-out: pIC50 A2780 Ovarian Cell, Without Palmitate (converted)
[5] = biological target: Fatty Acid Synthase Keto-reductase Domain (FASN KR) (Homo sapiens, UniProt P49327); assay: Fatty Acid Synthase keto-reductase domain (FASN KR) inhibition, NADPH oxidation at 340 nm
Fatty Acid Synthase Keto-reductase Domain (FASN KR), sequence (P49327 whole entry, the tested form may be a part): as the sequence (P49327 whole entry) above
Method: After 20 minutes incubation at room temperature the plate was measured again (T2).
The decrease in absorbance was calculated as (Absorbance before incubation T1)−(Absorbance following incubation T2).
A plot of Controlmin versus test compound concentration was fitted to a 4-parameter logistic curve using a non-linear least squares regression method.

[6] = test system: PC-3M-Luc-C6 prostate cells; assay: In vitro PC-3M-Luc-C6 prostate cell proliferation assay in lipid reduced medium; type: cell-based; conditions: 96 h, read-out: pIC50 PC-3M-Luc-C6 prostate cell (converted)

SMILES | IC50 [1] | IC50 (A2780 ovarian cells [2]) | inhibition at 10 µM [3] | IC50 [3] | IC50 (A2780 ovarian cells [4]) | IC50 [5] | IC50 [6]
COC(=O)N1CC2(C1)N=C(c1ccc(-c3ccc4cccnc4c3)cc1)N(C[C@@H]1CCN(C(=O)C(C)O)C1)C2=O (stereo partly drawn) [compound 729, Methyl 7-{[(3R)-1-(2-hydroxypropanoyl)pyrrolidin-3-yl]methyl}-8-oxo-6-(4-quinolin-7-ylphenyl)-2,5,7-triazaspiro[3.4]oct-5-ene-2-carboxylate] | 8710 nM | > 10 µM | 95% | 309 nM | 1290 nM | 813 nM | 1450 nM
Cc1cc(C2=NC3(CC3)C(=O)N2C[C@@H]2CCN(C(=O)C3CC3)C2)ccc1-c1ccc2[nH]ccc2c1 [compound 238, (R)-5-(4-(1H-indol-5-yl)-3-methylphenyl)-6-((1-(cyclopropanecarbonyl)pyrrolidin-3-yl)methyl)-4,6-diazaspiro[2.4]hept-4-en-7-one] | 245 nM | > 10 µM | 98% | 43.7 nM | 42.7 nM | 105 nM | 70.8 nM
O=C(C1CC1)N1CC(CN2C(=O)C3(CC3)N=C2c2ccc(-c3ccc4cccnc4c3)cc2F)C1 [compound 346, 6-((1-(cyclopropanecarbonyl)azetidin-3-yl)methyl)-5-(2-fluoro-4-(quinolin-7-yl)phenyl)-4,6-diazaqspiro[2.4]hept-4-en-7-one] | 43.7 nM | > 10 µM | 97% | 49 nM | ~17 nM | 53.7 nM | 22.4 nM
N#Cc1ccc2cc(-c3ccc(C4=NC5(CC5)C(=O)N4CC4CN(C(=O)C5CC5)C4)c(F)c3)ccc2c1 [compound 222, 6-(4-(6-((1-(cyclopropanecarbonyl)azetidin-3-yl)methyl)-7-oxo-4,6-diazaspiro[2.4]hept-4-en-5-yl)-3-fluorophenyl)-2-naphthanitrile] | 46.8 nM | ~2.45 µM | 103% | 27.5 nM | 6.17 nM | ~51.3 nM | 9.33 nM
O=C(C1CC1)N1CC(CN2C(=O)C3(CCOC3)N=C2c2ccc(-c3ccc4cccnc4c3)cc2)C1 (centres unmarked) [compound 714, 3-{[1-(Cycloprppylcarbonyl)azetidin-3-yl]methyl}-2-(4-quinolin-7-ylphenyl)-7-oxa-1,3-diazaspiro[4.4]non-1-en-4-one] | 5250 nM | > 10 µM | 89% | 363 nM | 933 nM | 1510 nM | 794 nM
Cn1cc2ccc(-c3ccc(C4=NC5(CC5)C(=O)N4CC4CN(C(=O)C5CC5)C4)c(F)c3)cc2n1 [compound 227, 6-((1-(cyclopropanecarbonyl)azetidin-3-yl)methyl)-5-(2-fluoro-4-(2-methyl-2H-indazol-6-yl)phenyl)-4,6-diazaspiro[2.4]hept-4-en-7-one] | 355 nM | > 10 µM | 99% | 42.7 nM | 13.2 nM | 151 nM | 55 nM
O=C(C1CC1)N1CC(CN2C(=O)C3(CC3)N=C2c2ccc(-c3ccc4cc(Cl)cnc4c3)cc2)C1 [compound 339, 5-(4-(3-chloroquinolin-7-yl)phenyl)-6-((1-(cyclopropanecarbonyl)azetidin-3-yl)methyl)-4,6-diazaspiro[2.4]hept-4-en-7-one] | 324 nM | ~2.82 µM | 95% | 30.9 nM | 28.8 nM | 47.9 nM | 31.6 nM
N#Cc1cc2cc(-c3ccc(C4=NC5(CC5)C(=O)N4CC4CN(C(=O)C5CC5)C4)cc3)ccc2o1 [compound 475, 5-[4-(6-{[1-(Cyclopropylcarbonyl)azetidin-3-yl]methyl}-7-oxo-4,6-diazaspiro[2.4]hept-4-en-5-yl)phenyl]-1-benzofuran-2-carbonitrile] | 3310 nM | > 10 µM | 93% | 166 nM | 813 nM | 372 nM | 661 nM
Cc1cc(-c2ccc3cc(F)ccc3c2)ccc1C1=NC2(CC2)C(=O)N1C[C@@H]1CCN(C(=O)C2(C)CC2)C1 [compound 266, (R)-5-(4-(6-fluoronaaphthalen-2-yl)-2-methylphenyl)-6-((1-(1-methylcyclopropanecarbonyl)pyrrolidin-3-yl)methyl)-4,6-diazaspiro[2.4]hept-4-en-7-one] | 15.1 nM | 1.35 µM | 102% | 33.9 nM | ~2.19 nM | 46.8 nM | 4.68 nM
O=C(C1CC1)N1CC[C@@H](CN2C(=O)C3(CC3)N=C2c2ccc(-c3c[nH]c4ccccc34)cc2F)C1 [compound 261, (R)-6-((1-(cyclopropanecarbonyl)pyrrolidin-3-yl)methyl)-5-(2-fluoro-4-(1H-indol-3-yl)phenyl)-4,6-diazaspiro[2.4]hept-4-en-7-one] | ~102 nM | > 10 µM | 98% | 55 nM | 6.61 nM | 89.1 nM | 21.4 nM
O=C(C1CC1)N1CC[C@@H](CN2C(=O)C3(CC3)N=C2c2ccc(-c3ccc4sccc4c3)s2)C1 [compound 425, 5-[5-(1-Benzothiophen-5-yl)thiophen-2-yl]-6-{[(3R)-1-(cyclopropylcarbonyl)pyrrolidin-3-yl]methyl}-4,6-diazaspiro[2.4]hept-4-en-7-one] | 3160 nM | > 10 µM | 93% | 275 nM | ~6920 nM | 646 nM | 2190 nM
Cn1ncc2cc(-c3ccc(C4=NC5(CC5)C(=O)N4CC4CN(C(=O)C5(O)CC5)C4)c(Cl)c3)ccc21 [compound 264, 5-(2-chloro-4-(1-methyl-1H-indazol-5-yl)phenyl)-6-((1-(1-hydroxycyclopropanecarbonyl)azetidin-3-yl)methyl)-4,6-diazaspiro[2.4]hept-4-en-7-one] | 501 nM | > 10 µM | 108% | 37.2 nM | 74.1 nM | 158 nM | 44.7 nM
O=C(C1CC1)N1CC[C@@H](CN2C(=O)C3(CC3)N=C2c2ccc(-c3cccc(S(=O)(=O)C4CC4)c3)cc2F)C1 [compound 647, 6-{[(3R)-1-(Cyclopropylcarbonyl)pyrrolidin-3-yl]methyl}-5-[3′-(cyclopropylsulfonyl)-3-fluorobiphenyl-4-yl]-4,6-diazaspiro[2.4]hept-4-en-7-one] | 5130 nM | > 10 µM | 91% | 631 nM | 1950 nM | 1380 nM | 1740 nM
O=C(C1CC1)N1CC(CN2C(=O)C3(CC3)N=C2c2ccc(-c3ccc4ccc(F)cc4c3)cc2F)C1 [compound 324, 6-((1-(cyclopropanecarbonyl)azetidin-3-yl)methyl)-5-(2-fluoro-4-(7-fluoronaphthalen-2-yl)phenyl)-4,6-diazaspiro[2.4]hept-4-en-7-one] | 158 nM | > 10 µM | 105% | 32.4 nM | 19.5 nM | 67.6 nM | ~30.2 nM
Cn1cc(-c2ccc(-c3ccc(C4=NC5(CC5)C(=O)N4CC4CN(C(=O)C5CC5)C4)cc3)cc2)cn1 [compound 59, 6-{[1-(Cyclopropylcarbonyl)azetidin-3-yl]methyl}-5-[4′-(1-methyl-1H-pyrazol-4-yl)biphenyl-4-yl]-4,6-diazaspiro[2.4]hept-4-en-7-one] | 263 nM | > 10 µM | 98.7% | 41.7 nM | 95.5 nM | 132 nM | 100 nM
O=C(C1CC1)N1CC[C@@H](CN2C(=O)C3(CC3)N=C2c2ccc(-c3ccc4occc4c3)cn2)C1 [compound 390, 5-[5-(1-Benzofuran-5-yl)pyridin-2-yl]-6-{[(3R)-1-(cyclopropylcarbonyl)pyrrolidin-3-yl]methyl}-4,6-diazaspiro[2.4]hept-4-en-7-one] | 2750 nM | > 10 µM | 99% | 324 nM | ~2630 nM | 676 nM | 1480 nM
Cc1cc2cc(-c3ccc(C4=NC5(CC5)C(=O)N4CC4CN(C(=O)C5CC5)C4)c(C)c3)ccc2s1 [compound 391, 6-{[1-(Cyclopropylcarbonyl)azetidin-3-yl]methyl}-5-[2-methyl-4-(2-methyl-1-benzothiophen-5-yl)phenyl]-4,6-diazaspiro[2.4]hept-4-en-7-one] | 1700 nM | > 10 µM | 104% | 129 nM | 1170 nM | 389 nM | 724 nM
